The values below come from article PMC2806602 (The Journal of neuroscience : the official journal of the …, 2009).

SMILES strings stand for the structures. Changes are numbered by the printed parent chain.

Type in all cases: cell-based
One experiment has as its target T1, GluRδ2^Lc D535A+D782A (Rattus norvegicus, UniProt Q63226, A654T/D535A/D782A).
T1 sequence (Q63226 24-1007 D535A/A654T/D782A): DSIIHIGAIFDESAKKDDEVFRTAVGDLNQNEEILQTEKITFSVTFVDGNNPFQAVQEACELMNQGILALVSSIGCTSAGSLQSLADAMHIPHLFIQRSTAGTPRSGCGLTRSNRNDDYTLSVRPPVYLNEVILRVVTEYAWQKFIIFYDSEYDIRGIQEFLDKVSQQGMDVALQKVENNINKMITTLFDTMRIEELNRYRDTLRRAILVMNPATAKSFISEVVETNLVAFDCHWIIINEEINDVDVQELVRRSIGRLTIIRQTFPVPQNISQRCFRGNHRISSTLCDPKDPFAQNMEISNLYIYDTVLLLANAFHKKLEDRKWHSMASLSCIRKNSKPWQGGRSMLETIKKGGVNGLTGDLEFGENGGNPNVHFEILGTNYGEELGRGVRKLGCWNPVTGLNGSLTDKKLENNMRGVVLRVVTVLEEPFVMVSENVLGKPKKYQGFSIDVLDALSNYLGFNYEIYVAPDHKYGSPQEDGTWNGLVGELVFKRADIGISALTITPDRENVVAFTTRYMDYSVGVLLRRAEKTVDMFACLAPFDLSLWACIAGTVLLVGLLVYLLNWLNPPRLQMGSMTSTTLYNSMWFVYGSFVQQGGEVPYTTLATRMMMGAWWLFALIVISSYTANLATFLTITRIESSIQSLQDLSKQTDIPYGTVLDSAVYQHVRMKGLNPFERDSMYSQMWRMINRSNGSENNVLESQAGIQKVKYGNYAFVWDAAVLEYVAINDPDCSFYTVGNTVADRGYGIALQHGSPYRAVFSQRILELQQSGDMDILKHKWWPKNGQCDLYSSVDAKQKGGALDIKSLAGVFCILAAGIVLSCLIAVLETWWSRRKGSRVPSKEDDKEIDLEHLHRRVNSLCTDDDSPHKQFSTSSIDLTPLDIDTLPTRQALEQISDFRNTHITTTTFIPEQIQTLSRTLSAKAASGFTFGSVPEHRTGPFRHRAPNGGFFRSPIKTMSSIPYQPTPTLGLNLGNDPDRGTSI
Description: Two-electrode voltage-clamp recordings in Xenopus oocytes, GluRδ2^Lc D535A+D782A. (Two-electrode voltage clamp is typically applied to oocytes expressing channels or transporters.)

The next experiment has as its target T2, GluRδ2^Lc E531A+D782A (Rattus norvegicus, UniProt Q63226, A654T/D782A/E531A).
T2 sequence (Q63226 24-1007 E531A/A654T/D782A): T1 sequence (Q63226 24-1007 D535A/A654T/D782A) with E508A, A512D
Description: Two-electrode voltage-clamp recordings in Xenopus oocytes, GluRδ2^Lc E531A+D782A.

A further experiment deals with T3, GluRδ2^Lc P528C+L789C (Rattus norvegicus, UniProt Q63226, A654T/L789C/P528C).
T3 sequence (Q63226 24-1007 P528C/A654T/L789C): T1 sequence (Q63226 24-1007 D535A/A654T/D782A) with P505C, A512D, A759D, L766C
Description: Two-electrode voltage-clamp recordings in Xenopus oocytes, GluRδ2^Lc P528C+L789C.

As for `[Ca+2]` [Ca^2+, calcium], the “Ca^2+ potentiation (relative to baseline)” value on GluRδ2^Lc D535A+D782A (3 mM Ca^2+, ± SEM) was determined as 0.6 ± 0.01 fold; at GluRδ2^Lc E531A+D782A (3 mM Ca^2+, ± SEM), 0.9 ± 0.04 fold; on GluRδ2^Lc P528C+L789C (3 mM Ca^2+, ± SEM), 0.9 ± 0.01 fold.

On to `N[C@H](CO)C(=O)O` [D-serine], for which the “D-serine + 0 mM Ca^2+ nH” value at GluRδ2^Lc D535A+D782A (Hill slope, 0 mM Ca^2+) is on record as 1.0; on GluRδ2^Lc E531A+D782A (Hill slope, 0 mM Ca^2+) it was 2.3; on GluRδ2^Lc P528C+L789C (Hill slope, 0 mM Ca^2+), 1.1. In addition, the “D-serine + 3 mM Ca^2+ nH” value stood at 1.1 on GluRδ2^Lc D535A+D782A (Hill slope, 3 mM Ca^2+); 2.4 on GluRδ2^Lc E531A+D782A (Hill slope, 3 mM Ca^2+); 0.8 on GluRδ2^Lc P528C+L789C (Hill slope, 3 mM Ca^2+).
